Results reported in patent US20040157793A1, “Modified nucleosides as antiviral agents” (priority 2002, published 2004).
Read-outs that look alike come from different tables or passages of the source.

Tests used:
[1] = tested on: HBV (wild-type virus: rtM204) in HepAD38 cells; assay: Suppression of HBV production in HepAD38 cells, viral DNA in supernatant by Q-PCR; assay type: cell-based; settings: for HepAD38 log10 inhibition at 10 μM: HBV DNA in supernatant; for EC90: read-out: HepAD38 EC90
Source text: The HepAD38 (wild-type virus: rtM204) and HepAD79 (3TC-resistant virus: rtV204) (Stuyver L. J. et al. 2001, Hepatol., 33:751-757) cell lines replicate HBV under conditions that can be regulated with tetracycline (King R. W. et al. 2000, Methods in Molecular Medicine, Vol 24: Antiviral Methods and Protocols, 43-50 (eds: D. Kinchington & R. F. Schinazi), Humana Press Inc, Totowa, N.J.); Ladner, et al. 1997, Antimicrob. Agents Chemother., 41:1715-1720; Ladner S. K., et al. 1998a. Antivir. Chem. Chemother., 9:65-72; Ladner S. K., et al. 1998b. Antimicrob. Agents Chemother., 42:2128-31). In the presence of this drug, the cell supernatant is virtually free of viral DNA, but upon the removal of tetracycline from the culture medium, these cells secrete virus-like particle into the supernatant.
(§1) HepAD38 and HepAD79 cells were seeded at 5×10^4 cells/well in a 96-well plate in seeding medium (DMEM/F12+10% FBS, 50 μg/ml penicillin, 50 μg/ml streptomycin, 100 μg/ml kanamycin, 400 μg/ml G418, and 0.3 μg/ml tetracycline) and incubated for 2 days at 37° C. in a 5% CO2, humidified atmosphere. The seeding media was removed, and cells were washed 3 times with PBS. Cells were then incubated with 200 μL assay medium (DMEM/F12+10% FBS+P/S/K) containing either (i) no compound, (ii) test compound, or (iii) control drugs at 10 μM. After an additional 5-day (HepAD38) or 13-day incubation (HepAD79, with renewal of the culture media at day 7), the cell supernatant was collected and stored at −70° C. until HBV DNA was quantified.
HBV DNA was extracted from supernatant using QiaAmp DNA blood Mini kit (Qiagen) and nucleic acids eluted in 200 μl Viral DNA was detected by quantitative PCR (Q-PCR). The TaqMan probe and primers were designed using the Primer Express software (Applied Biosystems) and cover highly conserved sequences complementary to the DNA sequences present in HBsAg. A total of 5 μl DNA was amplified using reagents and conditions as described by the manufacturer (Applied Biosystems). […]

[2] = tested on: HBV (3TC-resistant virus: rtV204) in HepAD79 cells; assay: microbe, parasite or virus in culture; assay type: cell-based; settings: for HepAD79 log10 inhibition at 10 μM: HBV DNA in supernatant; for activity against the mutant virus (in words): rtV204 mutant virus
Procedure: as §1
HBV DNA was extracted from supernatant using QiaAmp DNA blood Mini kit (Qiagen) and nucleic acids eluted in 200 μl Viral DNA was detected by quantitative PCR (Q-PCR). The TaqMan probe and primers were designed using the Primer Express software (Applied Biosystems) and cover highly conserved sequences complementary to the DNA sequences present in HBsAg. A total of 5 μl DNA was amplified using reagents and conditions as described by the manufacturer (Applied Biosystems).
Subsequently, the time course of viral induction in HepAD79 cells over a 13-day incubation period was investigated.
Therefore, the DNA extracted from the cell supernatant was also amplified by Q-PCR for the presence of cellular DNA (the rRNA gene).

[3] = tested on: HepG2 cells (mitochondrial COXII DNA); settings: HepG2, 14-day treatment
[4] = HepAD38 cells, 5-day incubation
[5] = HepAD38 cells, 5-day incubation, concentration reducing viral load by 90%, unit printed in text only
[6] = HepAD79 cells, 13-day incubation
[7] = HepAD79 cells, 13-day incubation, read-out: HepAD79 EC90
[8] = Hepatitis B virus, 312 h, read-out: HepAD79 EC90, HepAD79 cells, 13-day incubation

| SMILES | HepAD38 log10 inhibition at 10 μM [1, 4] [log10] | EC90 [1, 5] [µM] | HepAD79 log10 inhibition at 10 μM [2, 6] [log10] | EC90 [2, 7] [µM] | EC90 ([1]; Hepatitis B virus, 120 h, HepAD38 cells, 5-day incubation, concentration reducing viral load by 90%) [µM] | EC90 [2, 8] [µM] | EC90 ([1]; Hepatitis B virus, HePAD38, 120 h) [µM] | EC90 ([2]; read-out: HepAD79 EC90, HepAD79 cells, 13-day incubation) [µM] | inhibition of wild type HBV (in words) [1] | Average ΔCt ± s.d. MitCoxII ([3]; 10 μM) | Average ΔCt ± s.d. rDNA ([3]; 10 μM) | Average ΔΔCt ± s.d. MitCOXII-rDNA ([3]; 10 μM) | Fold difference in COXII DNA levels normalized for rDNA (range) relative to control ([3]; 10 μM) | Average ΔCt ± s.d. MitCoxII ([3]; 100 μM) | Average ΔCt ± s.d. rDNA ([3]; 100 μM) | Average ΔΔCt ± s.d. MitCOXII-rDNA ([3]; 100 μM) | Fold difference in COXII DNA levels normalized for rDNA (range) relative to control ([3]; 100 μM) | activity against the mutant virus (in words) [2] |
| --- | --- | --- | --- | --- | --- | --- | --- | --- | --- | --- | --- | --- | --- | --- | --- | --- | --- | --- |
| Nc1nc(=O)n(C2CSC(CO)O2)cc1F (single isomer, unassigned; (-)) [(−)-FTC, (−)-enantiomer of 2-hydroxymethyl-5-(5-fluorocytosin-1-yl)-1,3-oxathiolane] | 1.59 ± 0.14 | 1.16 ± 0.66 | 0.28 | > 10 | – | – | – | – | – | – | – | – | – | – | – | – | – | – |
| Nc1ccn([C@@H]2CS[C@H](CO)O2)c(=O)n1 [3TC, (−)-enantiomer of 2-hydroxymethyl-5-(cytosin-1-yl)-1,3-oxathiolane] | 1.97 ± 0.28 | – | 0.67 ± 0.03 | – | 0.05 | > 10 | – | – | – | – | – | – | – | – | – | – | – | – |
| Nc1ncnc2c1ncn2CCOCP(=O)(O)O [Adefovir] | 0.72 ± 0.12 | – | 0.91 ± 0.11 | – | – | > 10 | > 10 | ~10 | – | – | – | – | – | – | – | – | – | – |
| Nc1ccn([C@H]2O[C@@H](CO)C=C2F)c(=O)n1 [L-2′F-D4C] | 1.77 ± 0.13 | 0.74 | 0.33 | > 10 | – | – | – | – | potent inhibitors | −0.36 ± 0.02 | −0.06 ± 0.27 | −0.30 ± 0.28 | 1.23 (1.02-1.50) | 0.33 ± 0.21 | 0.53 ± 0.60 | −0.20 ± 0.40 | 1.15 (0.87-1.52) | completely inactive |
| Nc1nc(=O)n([C@H]2O[C@@H](CO)C=C2F)cc1F [L-2′F-D4FC] | 1.91 ± 0.13 | 0.63 | 0.23 | > 10 | – | – | – | – | potent inhibitors | 0.05 ± 0.07 | −0.23 ± 0.20 | 0.28 ± 0.17 | 0.82 (0.73-0.92) | 0.83 ± 0.17 | 0.85 ± 0.51 | −0.02 ± 0.64 | 1.01 (0.65-1.58) | completely inactive |
